The test addresses T1, full-length hepatitis C viral protein NS3•4A (Hepatitis C virus genotype 1a, UniProt P27958).
T1 construct: hexa-histidine (N); made in house; host or cells: Sf9 insect cells (baculovirus, pVL1392)
Kind of test: biochemical. Details: species or system HCV sub-type strain 1a. As to conditions: Enzyme Assay 2 (HCV NS3 Peptide Cleavage Assay) activity, apparent Ki class.

Among the data in patent US7964624B1, “Inhibitors of serine proteases” (priority 2005, dated 2011) are Ki values, retold here.

As to `CCC[C@H](NC(=O)[C@@H]1C[C@]2(CC(c3cc(Cl)nc4ccccc34)=NO2)CN1C(=O)[C@@H](NC(=O)CC1CCCCC1)C(C)(C)C)C(=O)C(=O)NC1CC1` [Compound 638], the Ki is less than 100 nM.
As for `CCC[C@H](NC(=O)[C@@H]1C[C@]2(CC(c3cc(Cl)nc4ccccc34)=NO2)CN1C(=O)[C@@H](NC(=O)OC1CCCC1)C(C)(C)C)C(=O)C(=O)NC1CC1` [Compound 639], the figure is less than 100 nM; as for `CCC[C@H](NC(=O)[C@@H]1C[C@]2(CC(c3cc(C)c(OC)c(Cl)c3)=NO2)CN1C(=O)[C@@H](NC(=O)CC1CCCCC1)C(C)(C)C)C(=O)C(N)=O` [Compound 640], less than 100 nM.
As for `CCC[C@H](NC(=O)[C@@H]1C[C@]2(CC(c3cc(C)c(OC)c(Cl)c3)=NO2)CN1C(=O)[C@@H](NC(=O)CC1CCCCC1)C(C)(C)C)C(=O)C(=O)NC` [Compound 641], the Ki is less than 100 nM.
With `CNC(=O)C(=O)[C@H](CC1CC1)NC(=O)[C@@H]1C[C@]2(CC(c3cc(C)c(OC)c(Cl)c3)=NO2)CN1C(=O)[C@@H](NC(=O)CC1CCCCC1)C(C)(C)C` [Compound 642], the Ki was less than 100 nM.
With `CCC[C@H](NC(=O)[C@@H]1C[C@]2(CC(c3cc(Cl)cc(C)c3OC)=NO2)CN1C(=O)[C@@H](NC(=O)CC1CCCCC1)C(C)(C)C)C(=O)C(=O)NC1CC1` [Compound 643], the Ki is less than 100 nM.
Regarding `CCC[C@H](NC(=O)[C@@H]1C[C@]2(CC(c3cccc4cccnc34)=NO2)CN1C(=O)[C@@H](NC(=O)OC(C)(C)C)C(C)(C)C)C(=O)C(=O)NC` [Compound 644], the Ki is 100 to 500 nM.
As for `CCC[C@H](NC(=O)[C@@H]1C[C@]2(CC(c3cc(C)c(OC)c(Cl)c3)=NO2)CN1C(=O)[C@@H](NC(=O)OC(C)(C)C)C(C)(C)C)C(=O)C(=O)NC1CC1` [Compound 645], the Ki is less than 100 nM.
In the case of `CCC[C@H](NC(=O)[C@@H]1C[C@]2(CC(c3cc(C)c(OC)c(Cl)c3)=NO2)CN1C(=O)[C@@H](NC(=O)OC(C)(C)C)C(C)(C)C)C(=O)C(=O)NC` [Compound 646], the Ki is less than 100 nM.
As for `CCC[C@H](NC(=O)[C@@H]1C[C@]2(CC(c3cccc4cccnc34)=NO2)CN1C(=O)[C@@H](NC(=O)OC1CCCC1)C(C)(C)C)C(=O)C(=O)NC` [Compound 647], the figure is 100 to 500 nM; as for `CCC[C@H](NC(=O)[C@@H]1C[C@]2(CC(c3cccc4cccnc34)=NO2)CN1C(=O)[C@@H](NC(=O)OC1CCCC1)C(C)(C)C)C(=O)C(=O)NC1CC1` [Compound 648], 100 to 500 nM.
For `CCC[C@H](NC(=O)[C@@H]1C[C@]2(CC(c3cc(Cl)ccc3OC)=NO2)CN1C(=O)[C@@H](NC(=O)CC1CCCCCC1)C(C)(C)C)C(=O)C(=O)NC1CC1` [Compound 649], the Ki fell in the range of 100 to 500 nM.
With `CCC[C@H](NC(=O)[C@@H]1C[C@]2(CC(c3cc(Cl)c(OC)cc3C)=NO2)CN1C(=O)[C@@H](NC(=O)OC1CCCC1)C(C)(C)C)C(=O)C(=O)NC` [Compound 650], the Ki was in the range of 100 to 500 nM.
On to `CCC[C@H](NC(=O)[C@@H]1C[C@]2(CC(c3cc(Cl)c(OC)cc3C)=NO2)CN1C(=O)[C@@H](NC(=O)OC1CCCC1)C(C)(C)C)C(=O)C(N)=O` [Compound 651], for which the Ki is 100 to 500 nM.
Turning to `CCC[C@H](NC(=O)[C@@H]1C[C@]2(CC(c3ccc(F)c(Cl)c3)=NO2)CN1C(=O)[C@@H](NC(=O)OC1CCCC1)C(C)(C)C)C(=O)C(=O)NC1CC1` [Compound 652], the Ki was less than 100 nM.
For `CCC[C@H](NC(=O)[C@@H]1C[C@]2(CC(c3ccc(F)c(Cl)c3)=NO2)CN1C(=O)[C@@H](NC(=O)OC1CCCC1)C(C)(C)C)C(=O)C(=O)NC` [Compound 653], the Ki lay within 100 to 500 nM.
On to `CCC[C@H](NC(=O)[C@@H]1C[C@]2(CC(c3ccc(F)c(Cl)c3)=NO2)CN1C(=O)[C@@H](NC(=O)OC1CCCC1)C(C)(C)C)C(=O)C(N)=O` [Compound 654], for which the Ki is less than 100 nM.
Consider `CCC[C@H](NC(=O)[C@@H]1C[C@]2(CC(c3cc(Cl)c(OC)cc3OC)=NO2)CN1C(=O)[C@@H](NC(=O)CC1CCCCCC1)C(C)(C)C)C(=O)C(=O)NC` [Compound 655], for which the Ki fell in the range of 100 to 500 nM.
As for `CCC[C@H](NC(=O)[C@@H]1C[C@]2(CC(c3cc(Cl)c(OC)cc3OC)=NO2)CN1C(=O)[C@@H](NC(=O)CC1CCCCCC1)C(C)(C)C)C(=O)C(N)=O` [Compound 656], the Ki fell in the range of 100 to 500 nM.
Consider `CNC(=O)C(=O)[C@H](CC1CC1)NC(=O)[C@@H]1C[C@]2(CC(c3cc(Cl)c(OC)cc3OC)=NO2)CN1C(=O)[C@@H](NC(=O)CC1CCCCC1)C(C)(C)C` [Compound 657], for which the Ki was less than 100 nM.
With `COc1c(C)cc(C2=NO[C@]3(C2)CC(C(=O)N[C@H](CC2CC2)C(=O)C(N)=O)N(C(=O)[C@@H](NC(=O)CC2CCCCC2)C(C)(C)C)C3)cc1Cl` (stereo partly drawn) [Compound 658], the Ki is 100 to 500 nM.
Regarding `CCC[C@H](NC(=O)[C@@H]1C[C@]2(CC(c3nccc4ccccc34)=NO2)CN1C(=O)[C@@H](NC(=O)OC1CCCC1)C(C)(C)C)C(=O)C(=O)NC1CC1` [Compound 661], the Ki was less than 100 nM.
Consider `CNC(=O)C(=O)[C@H](CC1CC1)NC(=O)[C@@H]1C[C@]2(CC(c3cc(Cl)c(OC)cc3C)=NO2)CN1C(=O)[C@@H](NC(=O)CC1CCCCC1)C(C)(C)C` [Compound 662], for which the Ki was 100 to 500 nM.
In the case of `CCC[C@H](NC(=O)[C@@H]1C[C@]2(CC(c3cc(Cl)c(OC)cc3C)=NO2)CN1C(=O)[C@@H](NC(=O)OC1CCCC1)C(C)(C)C)C(=O)C(=O)NC1CC1` [Compound 666], the Ki is less than 100 nM.
With `CCC[C@H](NC(=O)[C@@H]1C[C@]2(CC(c3cc(Cl)ccn3)=NO2)CN1C(=O)[C@@H](NC(=O)OC1CCCC1)C(C)(C)C)C(=O)C(=O)NC1CC1` [Compound 667], the Ki is less than 100 nM.
Take `CNC(=O)C(=O)[C@H](CC1CC1)NC(=O)[C@@H]1C[C@]2(CC(c3cccc4cccnc34)=NO2)CN1C(=O)[C@@H](NC(=O)CC1CCCCC1)C(C)(C)C` [Compound 671]: the Ki was in the range of 100 to 500 nM.
For `CCC[C@H](NC(=O)[C@@H]1C[C@]2(CC(c3cc(Cl)c4c(c3)OCCO4)=NO2)CN1C(=O)[C@@H](NC(=O)CC1CCCCC1)C(C)(C)C)C(=O)C(=O)NC` [Compound 674] the value was less than 100 nM.
As for `CNC(=O)C(=O)[C@H](CC1CC1)NC(=O)[C@@H]1C[C@]2(CC(c3cc(Cl)c4c(c3)OCCO4)=NO2)CN1C(=O)[C@@H](NC(=O)CC1CCCCC1)C(C)(C)C` [Compound 675], the Ki is less than 100 nM.
For the molecule `CCC[C@H](NC(=O)[C@@H]1C[C@]2(CC(c3cc(Cl)cc4c3OCOC4)=NO2)CN1C(=O)[C@@H](NC(=O)CC1CCCCC1)C(C)(C)C)C(=O)C(=O)NC1CC1` [Compound 676], the Ki was less than 100 nM.
Regarding `CNC(=O)C(=O)[C@H](CC1CC1)NC(=O)[C@@H]1C[C@]2(CC(c3cc(Cl)cc4c3OCOC4)=NO2)CN1C(=O)[C@@H](NC(=O)CC1CCCCC1)C(C)(C)C` [Compound 677], the Ki is less than 100 nM.
Take `CCC[C@H](NC(=O)[C@@H]1C[C@]2(CC(c3cnc(OC)nc3OC)=NO2)CN1C(=O)[C@@H](NC(=O)OC1CCCC1)C(C)(C)C)C(=O)C(=O)NC1CC1` [Compound 678]: the Ki lay within 100 to 500 nM.
`CCC[C@H](NC(=O)[C@@H]1C[C@]2(CC(c3cc(Cl)ccc3OC)=NO2)CN1C(=O)[C@@H](NC(=O)OC1CCCC1)C(C)(C)C)C(=O)C(=O)NC1CC1` [Compound 686]: the Ki is less than 100 nM.
For `CNC(=O)C(=O)[C@H](CC1CC1)NC(=O)[C@@H]1C[C@]2(CC(c3cc(Cl)cc4c3OCO4)=NO2)CN1C(=O)[C@@H](NC(=O)OC(C)(C)C)C(C)(C)C` [Compound 691] the value was 100 to 500 nM; for `CNC(=O)C(=O)[C@H](CC1CC1)NC(=O)[C@@H]1C[C@@]2(CC(c3nc(-c4ccccc4)no3)=NO2)CN1C(=O)[C@@H](NC(=O)OC1CCCC1)C(C)(C)C` [Compound 694], 100 to 500 nM.
For `CNC(=O)C(=O)[C@H](CC1CC1)NC(=O)[C@@H]1C[C@]2(CC(c3cccc(Cl)c3)=NO2)CN1C(=O)[C@@H](NC(=O)C1C[C@@H]1c1ccccc1)C(C)(C)C` (stereo partly drawn) [Compound 695] the value was less than 100 nM; for `CNC(=O)C(=O)[C@H](CC1CC1)NC(=O)[C@@H]1C[C@]2(CC(c3cccc(Cl)c3)=NO2)CN1C(=O)[C@@H](NC(=O)[C@@H]1C[C@H]1c1ccccc1)C(C)(C)C` [Compound 696], less than 100 nM; for `CCC[C@H](NC(=O)[C@@H]1C[C@]2(CC(c3cccc(Cl)c3)=NO2)CN1C(=O)[C@@H](NC(=O)[C@H]1C[C@@H]1c1ccccc1)C(C)(C)C)C(=O)C(=O)NC1CC1` [Compound 697], less than 100 nM.
Consider `CC(C)(C)[C@H](NC(=O)[C@H]1C[C@@H]1c1ccccc1)C(=O)N1C[C@@]2(CC(c3cccc(Cl)c3)=NO2)C[C@H]1C(=O)N[C@@H](CC1CC1)C(=O)C(N)=O` [Compound 699], for which the Ki is less than 100 nM.
For `CCC[C@H](NC(=O)[C@@H]1C[C@]2(CC(c3cccc(Cl)c3)=NO2)CN1C(=O)[C@@H](NC(=O)OC1CCCCCC1)C(C)(C)C)C(=O)C(=O)NC1CC1` [Compound 706] the value was less than 100 nM; for `COc1cc(C)c(C2=NO[C@]3(C2)C[C@@H](C(=O)N[C@@H](CC2CC2)C(=O)C(=O)NC2CC2)N(C(=O)[C@@H](NC(=O)CC2CCCCC2)C(C)(C)C)C3)cc1Cl` [Compound 709], 100 to 500 nM; for `CNC(=O)C(=O)[C@H](CC1CC1)NC(=O)[C@@H]1C[C@]2(CC(c3cccc(Cl)c3)=NO2)CN1C(=O)[C@@H](NC(=O)CC1CC2CCC1C2)C(C)(C)C` (stereo partly drawn) [Compound 716], less than 100 nM.
Take `CCC[C@H](NC(=O)[C@@H]1C[C@]2(CC(c3cc(C)c(OC)c(C)c3)=NO2)CN1C(=O)[C@@H](NC(=O)CC1CCCCC1)C(C)(C)C)C(=O)C(N)=O` [Compound 724]: the Ki was less than 100 nM.
On to `CNC(=O)C(=O)[C@H](CC1CC1)NC(=O)[C@@H]1C[C@]2(CC(c3cc(C)c(OC)c(C)c3)=NO2)CN1C(=O)[C@@H](NC(=O)CC1CCCCC1)C(C)(C)C` [Compound 725], for which the Ki was less than 100 nM.
Regarding `COc1c(C)cc(C2=NO[C@]3(C2)C[C@@H](C(=O)N[C@@H](CC2CC2)C(=O)C(N)=O)N(C(=O)[C@@H](NC(=O)CC2CCCCC2)C(C)(C)C)C3)cc1C` [Compound 726], the Ki was less than 100 nM.
For `CCC[C@H](NC(=O)[C@@H]1C[C@]2(CC(c3cc(C)c(OC)c(C)c3)=NO2)CN1C(=O)[C@@H](NC(=O)CC1CCCCCC1)C(C)(C)C)C(=O)C(N)=O` [Compound 728] the value was less than 100 nM.
